Experimental findings from patent publication US20210309619A1, “ISOXAZOLIN-5-ONE DERIVATIVES AND HERBICIDES CONTAINING THE SAME AS ACTIVE INGREDIENTS” (HOKKO CHEMICAL INDUSTRY CO., LTD., priority 2018, published 2021) are described below.

Format in all cases: in vivo
In assay [1] the test system is Echinochloa crus-galli. Briefly: Herbicidal effect test by treatment of rice paddy soil (Test Example 1). Conditions: 120 g/10 a, treated immediately after seeding, 14 days after treatment. How it is done:
(§1) Wagner pots with an area of 1/10000 ares were filled with a paddy soil, and a compound fertilizer (N:P:K=17:17:17) was mixed after water was added, followed by soil puddling. Then, Echinochloa crus-galli, broad leaf weeds (Lindernia pyxidaria and Monochoria vaginalis) and Scirpus juncoides, 30 seeds each, were sown in a depth of 0 to 1 cm. Water was poured immediately after seeding, and the water depth was kept at about 3 cm. A subsequent management was conducted in a glass greenhouse. Immediately after that, emulsions prepared using the compounds in Table 3 below according to Formulation Example 5 were diluted with water, and a certain amount of the water-diluted agent solutions were dropped. A converted amount of the applied active ingredient corresponded to 120 g per 10 ares.
(§2) This test was conducted in a double system per one agent solution concentration area, and the herbicidal rates (%) were determined by the following equation (Math. 1) 14 days after the treatment with the agents.
(§3) Herbicidal Rate (%)={1−(Average Dry Weight (g) of Plant of Treated Area)/(Average Dry Weight (g) of Plant of Untreated Area)}×100 [Math. 1]

The subject of assay [2] is Lindernia pyxidaria. The assay is described as above. Conditions: 120 g/10 a, treated immediately after seeding, 14 days after treatment. How it is done:
as §1, §2, §3

The test system of assay [3] is Monochoria vaginalis. Described as above. Conditions: 120 g/10 a, treated immediately after seeding, 14 days after treatment. How it is done:
as §1, §2, §3

Assay [4] concerns Scirpus juncoides. The assay is described as above. Conditions: 120 g/10 a, treated immediately after seeding, 14 days after treatment. How it is done:
as §1, §2, §3

For assay [5], the system named is Echinochloa crus-galli. Briefly: Herbicidal effect test by treatment during growing period in paddy rice cultivation (Test Example 2). Conditions: 120 g/10 a, treated seven days after seeding, 14 days after treatment.
Excerpt: as §3
as §1, with “after addition of water,” for “after water was added,”, “greenhouse. Emulsions” for “greenhouse. Immediately after that, emulsions”, “Table 4” for “Table 3”, “with water seven days after seeding,” for “with water,”, “ares. The test was conducted in a double system per one agent solution concentration area, and the herbicidal rates (%) were determined by the equation (Math. 1) 14 days after the treatment with the agents. In this regard, the compound numbers in Table 4 are the same as those in Table 1 and Table 2 above.” for “ares.”

The subject of assay [6] is Lindernia pyxidaria. Described as above. Conditions: 120 g/10 a, treated seven days after seeding, 14 days after treatment.
Excerpt: as §3
as §1, with “after addition of water,” for “after water was added,”, “greenhouse. Emulsions” for “greenhouse. Immediately after that, emulsions”, “Table 4” for “Table 3”, “with water seven days after seeding,” for “with water,”, “ares. The test was conducted in a double system per one agent solution concentration area, and the herbicidal rates (%) were determined by the equation (Math. 1) 14 days after the treatment with the agents. In this regard, the compound numbers in Table 4 are the same as those in Table 1 and Table 2 above.” for “ares.”

The test system of assay [7] is Monochoria vaginalis. The description is as above. Conditions: 120 g/10 a, treated seven days after seeding, 14 days after treatment.
Excerpt: as §3
as §1, with “after addition of water,” for “after water was added,”, “greenhouse. Emulsions” for “greenhouse. Immediately after that, emulsions”, “Table 4” for “Table 3”, “with water seven days after seeding,” for “with water,”, “ares. The test was conducted in a double system per one agent solution concentration area, and the herbicidal rates (%) were determined by the equation (Math. 1) 14 days after the treatment with the agents. In this regard, the compound numbers in Table 4 are the same as those in Table 1 and Table 2 above.” for “ares.”

In assay [8] the test system is Scirpus juncoides. Described as above. Conditions: 120 g/10 a, treated seven days after seeding, 14 days after treatment.
Excerpt: as §3
as §1, with “after addition of water,” for “after water was added,”, “greenhouse. Emulsions” for “greenhouse. Immediately after that, emulsions”, “Table 4” for “Table 3”, “with water seven days after seeding,” for “with water,”, “ares. The test was conducted in a double system per one agent solution concentration area, and the herbicidal rates (%) were determined by the equation (Math. 1) 14 days after the treatment with the agents. In this regard, the compound numbers in Table 4 are the same as those in Table 1 and Table 2 above.” for “ares.”

Assay [9] deals with Amaranthus viridis. Briefly: Herbicidal effect test by treatment of dry field farming soil (Test Example 3). Conditions: 120 g/10 a, sprayed one day after seeding, 14 days after treatment. An excerpt: (§4) Herbicidal Rate (%)={1−(Average Dry Weight (g) of Plant of Treated Area)/(Average Dry Weight (g) of Plant of Untreated Area)}×100 [Math. 1] Pots with a size of 36 cm^2 were filled with a dry field farming soil (alluvium). The soil of the top layer of 1 cm and seeds of weeds, namely southern crabgrass, Echinochloa crus-galli, Chenopodium album and Amaranthus viridis, 20 seeds each, were evenly mixed, and the top layer was gently pressed. Emulsions prepared using the compounds in Table 5 below according to Formulation Example 5 were diluted with water one day after seeding, and the water-diluted agent solutions were sprayed to the soil surfaces at a ratio of 100 liters per 10 ares. A converted amount of the applied active ingredient corresponded to 120 g per 10 ares. The herbicidal effects were evaluated by the same standard as that in Test Example 1, 14 days after the treatment with the agents. In this regard, the compound numbers in Table 5 are the same as those in Table 1 and Table 2 above.

Assay [10] has as its system Chenopodium album. Described as above. Conditions: 120 g/10 a, sprayed one day after seeding, 14 days after treatment.
Excerpt: as §4

In assay [11] the test system is Echinochloa crus-galli. The assay is described as above. Conditions: 120 g/10 a, sprayed one day after seeding, 14 days after treatment.
Excerpt: as §4

Assay [12] concerns southern crabgrass. The assay is described as above. Conditions: 120 g/10 a, sprayed one day after seeding, 14 days after treatment.
Excerpt: as §4

Assay [13] relates to Amaranthus viridis. The assay can be described thus: Herbicidal effect test by treatment of stem and leaf in dry field farming (Test Example 4). Conditions: 120 g/10 a, stem and leaf treatment seven days after seeding, 14 days after treatment.
Excerpt: as §4, with “Table 6” for “Table 5”, “water seven days” for “water one day”

Assay [14] has as its system Chenopodium album. The assay is described as above. Conditions: 120 g/10 a, stem and leaf treatment seven days after seeding, 14 days after treatment.
Excerpt: as §4, with “Table 6” for “Table 5”, “water seven days” for “water one day”

For assay [15], the system named is Echinochloa crus-galli. The description is as above. Conditions: 120 g/10 a, stem and leaf treatment seven days after seeding, 14 days after treatment.
Excerpt: as §4, with “Table 6” for “Table 5”, “water seven days” for “water one day”

The subject of assay [16] is southern crabgrass. Described as above. Conditions: 120 g/10 a, stem and leaf treatment seven days after seeding, 14 days after treatment.
Excerpt: as §4, with “Table 6” for “Table 5”, “water seven days” for “water one day”

SMILES strings stand for the structures.

On to `COC1CCCCC1n1oc(=O)c(Cc2ccccc2N(C(=O)Oc2ccccc2)S(=O)(=O)C(F)(F)F)c1C` (single isomer, unassigned) [Compound 288], for which the “Herbicidal rate, Echinochloa crus-galli” value in the assay with Echinochloa crus-galli [1] came to 100%; in the assay with Echinochloa crus-galli [5], 100%; in the assay with Echinochloa crus-galli [11] it was 90%; in the assay with Echinochloa crus-galli [15], 90%. Also, the “Herbicidal rate, Lindernia pyxidaria” value was 100% in the assay on Lindernia pyxidaria [2] and 90% in the assay on Lindernia pyxidaria [6]. Further, the figures for the “Herbicidal rate, Monochoria vaginalis” value in the assay on Monochoria vaginalis [3] and with Monochoria vaginalis [7] were 100% and 90%, respectively. Besides, the figures for the “Herbicidal rate, Scirpus juncoides” value in the assay with Scirpus juncoides [4] and in the assay with Scirpus juncoides [8] were 100% and 90%, respectively. The figures for the “Herbicidal rate, Amaranthus viridis” value in the assay on Amaranthus viridis [9] and in the assay with Amaranthus viridis [13] were 40% and 90%, respectively. Moreover, the “Herbicidal rate, Chenopodium album” value was 60% with Chenopodium album [10] and 90% in the assay on Chenopodium album [14]. In addition, the “Herbicidal rate, southern crabgrass” value with southern crabgrass [12] and in the assay on southern crabgrass [16] was 90% in each case.
As to `COC1CCCCC1n1oc(=O)c(Cc2ccccc2N(C(=O)Oc2ccccc2)S(=O)(=O)C(F)(F)F)c1C` (single isomer, unassigned) [Compound 289], the “Herbicidal rate, Echinochloa crus-galli” value with Echinochloa crus-galli [1] is given as 100%; in the assay with Echinochloa crus-galli [11], 90%. The “Herbicidal rate, Lindernia pyxidaria” value with Lindernia pyxidaria [2] was found to be 100%; in the assay on Lindernia pyxidaria [6], 90%. Also, the “Herbicidal rate, Monochoria vaginalis” value worked out at 100% in the assay on Monochoria vaginalis [3] and 90% in the assay with Monochoria vaginalis [7]. In addition, the “Herbicidal rate, Scirpus juncoides” value was 100% in the assay with Scirpus juncoides [4] and 90% with Scirpus juncoides [8]. The “Herbicidal rate, Amaranthus viridis” value was determined as 40% in the assay on Amaranthus viridis [9] and 90% with Amaranthus viridis [13]. The “Herbicidal rate, Chenopodium album” value stood at 60% in the assay on Chenopodium album [10] and 90% with Chenopodium album [14]. Besides, in the assay on southern crabgrass [12], the “Herbicidal rate, southern crabgrass” value stood at 90%.
Consider `COC1CCCC1n1oc(=O)c(Cc2ccccc2NS(=O)(=O)C(F)(F)F)c1C` (stereo not drawn) [Compound 59, 1,1,1-trifluoro-N-[2-[[(2-methoxycyclopentyl)-3-methyl-5-oxoisoxazol-4-yl]methyl]phenyl]methanesulfonamide], for which the “Herbicidal rate, Echinochloa crus-galli” value in the assay with Echinochloa crus-galli [1] was 100%; with Echinochloa crus-galli [5], 100%; with Echinochloa crus-galli [11] it was 90%; in the assay on Echinochloa crus-galli [15], 90%. Besides, the “Herbicidal rate, Lindernia pyxidaria” value stood at 100% in the assay with Lindernia pyxidaria [2] and 80% with Lindernia pyxidaria [6]. In addition, the “Herbicidal rate, Monochoria vaginalis” value worked out at 100% in the assay on Monochoria vaginalis [3] and 90% with Monochoria vaginalis [7]. Moreover, the entries for the “Herbicidal rate, Scirpus juncoides” value with Scirpus juncoides [4] and in the assay on Scirpus juncoides [8] were 100% and 90%, respectively. In addition, the results for the “Herbicidal rate, Amaranthus viridis” value in the assay with Amaranthus viridis [9] and in the assay with Amaranthus viridis [13] were 60% and 90%, respectively. Further, the “Herbicidal rate, Chenopodium album” value in the assay on Chenopodium album [10] is recorded as 60%; in the assay with Chenopodium album [14], 90%. The “Herbicidal rate, southern crabgrass” value in the assay on southern crabgrass [12] and in the assay on southern crabgrass [16] was 90% each time.
For the compound `COC1CCCCC1n1oc(=O)c(Cc2ccccc2NS(=O)(=O)C(F)(F)F)c1C` (stereo not drawn) [Compound 62, 1,1,1-trifluoro-N-[2-[[(2-methoxycyclohexyl)-3-methyl-5-oxoisoxazol-4-yl]methyl]phenyl]methanesulfonamide], the “Herbicidal rate, Echinochloa crus-galli” value in the assay on Echinochloa crus-galli [1] is 100%; in the assay with Echinochloa crus-galli [5], 100%; with Echinochloa crus-galli [11], 90%; in the assay on Echinochloa crus-galli [15], 90%. Further, the “Herbicidal rate, Lindernia pyxidaria” value in the assay with Lindernia pyxidaria [2] is 100%; with Lindernia pyxidaria [6] it was 80%. Besides, the “Herbicidal rate, Monochoria vaginalis” value in the assay on Monochoria vaginalis [3] was 100%; with Monochoria vaginalis [7] it was 90%. Also, the results for the “Herbicidal rate, Scirpus juncoides” value in the assay on Scirpus juncoides [4] and in the assay with Scirpus juncoides [8] were 100% and 90%, respectively. Moreover, the “Herbicidal rate, Amaranthus viridis” value was determined as 60% with Amaranthus viridis [9] and 90% with Amaranthus viridis [13]. Further, the “Herbicidal rate, Chenopodium album” value in the assay on Chenopodium album [10] turned out to be 60%; in the assay with Chenopodium album [14] it was 90%. The “Herbicidal rate, southern crabgrass” value in the assay with southern crabgrass [12] and with southern crabgrass [16] was 90% in each case.
Take `COC1CCCC1n1oc(=O)c(Cc2ccccc2N(C(C)=O)S(=O)(=O)C(F)(F)F)c1C` (stereo not drawn) [Compound 107, N-[2-[[(2-methoxycyclopentyl)-3-methyl-5-oxoisoxazol-4-yl]methyl]phenyl]-N-(trifluoromethylsulfonyl)acetamide]: the “Herbicidal rate, Echinochloa crus-galli” value in the assay on Echinochloa crus-galli [1] came to 100%; with Echinochloa crus-galli [5] it was 100%; in the assay with Echinochloa crus-galli [11] it was 90%; in the assay on Echinochloa crus-galli [15] it was 90%. Also, the “Herbicidal rate, Lindernia pyxidaria” value in the assay on Lindernia pyxidaria [2] amounted to 100%; with Lindernia pyxidaria [6], 80%. Besides, the “Herbicidal rate, Monochoria vaginalis” value is 100% in the assay on Monochoria vaginalis [3] and 90% in the assay with Monochoria vaginalis [7]. Further, the “Herbicidal rate, Scirpus juncoides” value in the assay on Scirpus juncoides [4] is listed as 100%; in the assay on Scirpus juncoides [8] it was 90%. In addition, the “Herbicidal rate, Amaranthus viridis” value stood at 60% with Amaranthus viridis [9] and 90% with Amaranthus viridis [13]. Besides, the “Herbicidal rate, Chenopodium album” value is given as 60% in the assay with Chenopodium album [10] and 90% in the assay on Chenopodium album [14]. Also, the entries for the “Herbicidal rate, southern crabgrass” value in the assay on southern crabgrass [12] and in the assay on southern crabgrass [16] were 90% and 80%, respectively.
On to `COC1CCCC1n1oc(=O)c(Cc2ccccc2N(C(=O)C(C)C)S(=O)(=O)C(F)(F)F)c1C` (stereo not drawn) [Compound 113], for which the “Herbicidal rate, Echinochloa crus-galli” value with Echinochloa crus-galli [1] stood at 100%; with Echinochloa crus-galli [5], 100%; in the assay with Echinochloa crus-galli [11] it was 90%; in the assay on Echinochloa crus-galli [15], 90%. Also, the figures for the “Herbicidal rate, Lindernia pyxidaria” value with Lindernia pyxidaria [2] and in the assay with Lindernia pyxidaria [6] were 100% and 80%, respectively. Besides, the “Herbicidal rate, Monochoria vaginalis” value in the assay on Monochoria vaginalis [3] worked out at 100%; in the assay with Monochoria vaginalis [7] it was 90%. For the same compound, the “Herbicidal rate, Scirpus juncoides” value in the assay on Scirpus juncoides [4] is on record as 100%; in the assay on Scirpus juncoides [8], 90%. Also, the “Herbicidal rate, Amaranthus viridis” value in the assay with Amaranthus viridis [9] is given as 60%; in the assay on Amaranthus viridis [13], 90%. Moreover, the “Herbicidal rate, Chenopodium album” value in the assay on Chenopodium album [10] worked out at 60%; in the assay on Chenopodium album [14], 90%. Besides, the results for the “Herbicidal rate, southern crabgrass” value in the assay on southern crabgrass [12] and with southern crabgrass [16] were 90% and 80%, respectively.
